The assay concerns the target T1, human GPR119 (Homo sapiens, UniProt Q8TDV5).
T1 construct: expressed in transfected cells; host or cells: Flp-In-T-REx 293 cells, tetracycline-induced
T1 sequence (Q8TDV5 1-335): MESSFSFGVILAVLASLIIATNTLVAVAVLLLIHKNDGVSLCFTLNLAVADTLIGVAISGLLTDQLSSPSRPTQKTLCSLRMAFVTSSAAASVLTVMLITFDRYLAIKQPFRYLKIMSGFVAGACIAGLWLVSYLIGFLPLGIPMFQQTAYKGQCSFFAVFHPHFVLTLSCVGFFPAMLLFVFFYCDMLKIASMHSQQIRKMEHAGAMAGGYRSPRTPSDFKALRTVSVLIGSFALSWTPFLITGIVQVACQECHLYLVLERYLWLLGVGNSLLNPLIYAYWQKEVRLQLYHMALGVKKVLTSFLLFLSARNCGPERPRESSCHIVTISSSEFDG
Nature of the assay: Human Tet-inducible cAMP assay. Type of assay: cell-based. Particulars: Flp-In-T-REx 293 tetracycline inducible cells expressing GPR119; Hit Hunter cAMP kit; 1 hour at 37° C.; read-out: hGPR119 EC50. How it is done:
The in vitro modulation of recombinant human GPR119 was determined as follows.
Human Tet-inducible cAMP Assay
Cell lines expressing GPR119 are generated using the Flp-In-T-REx 293 tetracycline inducible gene expression system are cultured in culture medium comprising the following components: DMFM#11965, 10% FBS, 2 mM L-glutamine, 200 ug/ml Hygromycin B, and 15 ug/ml blasticidin.
For cAMP assays, cells are plated on 96 well plates (e.g., BD Falcon: REF 353948, black side, clear bottom, TC surface) at a density of about 4.5×10^4 cells per well in growth medium containing 1.0 ug/ml tetracycline (1.0 mg/ml stock). The cells are then incubated for 48 hours at 37° C.
Following the incubation, the growth medium is removed from the wells and the wells rinsed (once) with the assay buffer included in the Hit Hunter cAMP kit (100 μl/well). Following the wash, 20 μl of assay buffer is added to each well, followed by addition of 10 μl of a 3× concentration compound working solution. The solution is then mixed. The final concentration range of compound is from about 10^−5M to about 10^−11M. The reagents are then incubated at 37° C. at 5% CO2 for 1 hour.
The manufacturer's protocol may be followed for cAMP determination. The Hit Hunter cAMP kit protocol is outlined for the HIT-T15 cAMP assays described above.
Compounds of the present invention were tested in the Human Tet-inducible cAMP assay described immediately above and the results shown in Table 4 below were obtained.
(cAMP levels reflect the balance of adenylyl cyclase and phosphodiesterase activity.)

Molecules are shown by their SMILES. Where a name gives a salt, the structure may show the parent alone.

As to `CCCc1cnc(N2CCC(Oc3ccn(-c4ccc(-c5ncco5)cc4)c(=O)c3)CC2)nc1` [Example 3, 1-(4-(oxazol-2-yl)phenyl)-4-(1-(5-propylpyrimidin-2-yl)piperidin-4-yloxy)pyridin-2(1H)-one], the EC50 was 0.204 µM.
The result for `CCCc1cnc(N2CCC(Oc3ccn(-c4ccc(-n5cncn5)cc4)c(=O)c3)CC2)nc1` [Example 1, 1-(4-(1H-1,2,4-triazol-1-yl)phenyl)-4-(1-(5-propylpyrimidin-2-yl)piperidin-4-yloxy)pyridin-2(1H)-one, hydrochloride salt] reads 0.087 µM; that for `CC(C)OC(=O)N1CCC(Oc2ccn(-c3ccc(-n4cncn4)cc3)c(=O)c2)CC1` [Example 4, isopropyl 4-(1-(4-(1H-1,2,4-triazol-1-yl)phenyl)-2-oxo-1,2-dihydropyridin-4-yloxy)piperidine-1-carboxylate], 5.19 µM; that for `CCCc1cnc(N2CCC(Oc3ccn(-c4ccc(-n5ccnc5)cc4)c(=O)c3)CC2)nc1` [Example 2, 1-(4-(1H-imidazol-1-yl)phenyl)-4-(1-(5-propylpyrimidin-2-yl)piperidin-4-yloxy)pyridin-2(1H)-one, hydrochloride salt], 0.094 µM.

A word on the EC50: it is the midpoint of the concentration-response curve.

The values above are taken from patent publication US7928230B2, “Method for modulating GPR119 G protein-coupled receptor and selected compounds” (Bristol-Myers Squibb Company, priority 2007, dated 2011).
